Entries after “also recorded” stand apart in the source; their conditions may differ.
Experiments:
[1] = test system: printed neural tissue arrays (astrocytes and RFP-NPCs in Matrigel); test: Neurotoxicity test using printed neural tissue arrays
Description: FIG. 20a, The experimental process of drug testing using printed neural tissue arrays. From left to right: 2D cultured astrocytes and RFP-NPCs were harvested and added to Matrigel for the preparation of bio-ink with a cell density ratio of 3:1 (astrocytes vs RFP-NPCs) and total cell density of 4×10^7 mL^−1. The prepared bio-ink were printed into droplet arrays with individual droplet size around 100 μm. On the next day, cancer chemotherapy drugs were added to the culture medium. The neurotoxicity of the drugs were assessed after a further 24 hrs. FIG. 20b, Fluorescent images of neural tissues treated with DMSO (control) and cancer chemotherapy drugs with different reported neurotoxicity risks: 5-Fluorouracil (minor), Carboplatin (moderate), Taxol (high). […] FIG. 20c, Comparison of the neurotoxicity of different chemotherapy drugs.
Neurotoxicity of cancer chemotherapy drugs occurs frequently in clinic and often limit the dose of chemotherapy. We tested three chemotherapy drugs that are reported in clinic with low, moderate and high risks of neurotoxicity, using printed droplet arrays containing neural tissues (astrocytes and NSCs in Matrigel).

[2] = reported in clinic; cited from earlier work
[3] = test system: printed neural tissues; test: Fluo-4 calcium imaging of printed neural tissues after KCl stimulation; type: cell-based, human; settings: KCl 60 mM, 65 days ppd
From the text: FIG. 3d-f show spontaneous calcium oscillations (FIG. 3d), single-cell traces (FIG. 3e) and correlation coefficient analysis (FIG. 3f) of printed neural tissues at 44 days ppd. The data reveal increased neural communication after a longer period of differentiation. […] Intensities are false-coloured according to the ‘fire’ Look Up Table of Fiji. […] Images are false-coloured as in FIG. 3g. Scale bars are all 100 μm.
Calcium imaging and correlation analysis. A Fluo-4 Direct™ calcium assay kit (F10471, Invitrogen) was used according to the manufacturer's instructions to measure calcium activities. Briefly, printed neural tissues were transferred to 48-well plates and incubated with NMM/Fluo-4 calcium imaging reagents (v:v, 1:1) for 1 h at 37° C. Both spontaneous and evoked calcium recordings were recorded at 37° C. by fluorescence confocal microscopy (Leica SP5) at 1 frame per 2 seconds for FIG. 3a, 1 frame per 15 seconds FIG. 3d and 1 frame per 1 second for FIG. 3g. Pre-processing and analysis of time-lapse calcium recordings were performed in MATLAB. […] Individual neuronal somata were manually selected as ROIs, and the pixel mask in the local area was refined using ICA-based de-mixing of fluorescent transients. ΔF/F0 at time t was calculated with a moving baseline as: […]

[4] = test system: Astrocytes in droplet arrays; test: Fluo-4 calcium live imaging of astrocytes in droplet arrays after KCl stimulation; type: cell-based, human; settings: KCl 60 mM
Description: FIG. 19a, human primary cortical astrocyte printed in an array. Astrocytes were printed at a cell density of 4×10^7 mL^−1 in Matrigel. Left: Calcein AM (CAM) staining of printed astrocytes at 2 days post printing. The dashed box indicates the area of the higher magnification image on the right (top two images in the middle). Top right row: higher magnification images of astrocyte printed in Matrigel (CAM staining image and the corresponding brightfield image) and image of astrocytes (brightfield with CAM staining) printed in agarose as the matrix. Bottom right row: immunostaining images of printed astrocytes with astrocyte markers vimentin (yellow) and GFAP (magenta). FIG. 19b, Spontaneous calcium fluctuations of astrocytes in printed droplet arrays. Left: Individual time-point frames of Fluo-4 calcium live imaging. Right: single-cell traces of the cells indicated by the colour-coded circles in the images (left panel). […] Proportions of astrocytes with spontaneous calcium fluctuations were measured at four conditions: 2D monolayer cell culture, and printed astrocyte, astrocyte-NPC, and astrocyte-MDA (a metastatic breast cancer cell line) droplet arrays. n>20 for all four conditions. *: P<0.05, **: P<0.01, ***: P<0.001 and ****: P<0.0001. […]

[5] = test system: iPSCs derived NPCs; test: Oil toxicity test using iPSCs derived NPCs; type: cell-based; settings: oil on top of medium of 2D cultured NPCs, 5 days; live (CAM)/dead (PI) staining on day 5
Description: 2D cultured NPCs were added with oil on top of medium and cultured for 5 days. Life (CAM, in green) and Dead (PI, in read) staining were conducted on day 5.
Bioreactors have been used in macro-scale to support biological active environment. However, nanoliter-sized bioreactors would offer the potential to study biological events with much small number of cells, and the potential application in high throughput assays. We firstly optimised the oil surrounding the nano-bioreactors, which plays a large role in the viability of the encapsulated neural tissues. […] The optimised conditions allow the growth of individual low-nanoliter sized neural tissue inside each nano-bioreactor, without interaction with cells in other nano-bioreactors. With differentiation medium, neural process outgrowth and neural migration were observed and assessed in nano-bioreactors. This technique have the potential for a low-cost HTS, as minimal cells and reagents are required. It also offers the potential application to study biological events where a small organised cluster of cells were involved, such as early stage embryogenesis and tumorigenesis.

[6] = test system: RFP-hNSCs; test: Toxicity test of DPhPC on hNSCs; type: cell-based, human; settings: DPhPC at 100 μg/mL or 400 μg/mL in neural maintenance medium; three days of culture
Description: RFP-hNSCs were cultured in neural maintenance medium containing no lipid (control) or DPhPC at either 100 μg/mL or 400 μg/mL. Arrows indicate the formation of neural rosette-like structures under all conditions after three days of culture.

Which results are given for `CC(=O)O[C@H]1C(=O)[C@@]2(C)[C@H]([C@H](OC(=O)c3ccccc3)[C@]3(O)C[C@H](OC(=O)[C@H](O)[C@@H](NC(=O)c4ccccc4)c4ccccc4)C(C)=C1C3(C)C)[C@]1(OC(C)=O)CO[C@@H]1C[C@@H]2O` [Taxol]?
neurotoxicity against neural cells in printed neural tissue arrays ([1]; human, 24 h): higher toxicity against neural cells compared to 5-Fluorouracil; reported neurotoxicity risk [2]: high

Which reported neurotoxicity risk [2] does the source give for `O=c1[nH]cc(F)c(=O)[nH]1` [5-Fluorouracil] here?
The reported neurotoxicity risk was “minor”.

Which results are given for `[Cl-].[K+]` [KCl]?
calcium response of printed neural tissues to KCl [3]: induced a rapid calcium transient in a cell; also recorded: evoked rapid Ca^2+ transients; calcium response of astrocytes in droplet arrays to KCl stimulation [4]: responsive

What does the source list for `N.N.O=C([O-])C1(C(=O)[O-])CCC1.[Pt+2]` [Carboplatin]?
neurotoxicity against neural cells in printed neural tissue arrays ([1]; drugs added to culture medium the day after printing, assessed after a further 24 hrs, astrocytes:RFP-NPCs 3:1, n>25, P<0.05): higher toxicity against neural cells compared to 5-Fluorouracil; reported neurotoxicity risk [2]: moderate

Which “oil toxicity to NPCs” value [5] does the source give for `CCCCCCCC/C=C\CCCCCCCC(=O)OCC(COC(=O)CCCCCCC/C=C\CCCCCCCC)OC(=O)CCCCCCC/C=C\CCCCCCCC` [glyceryl trioleate] here?
Its value is “not toxic”.

For `CC(C)CCCC(C)CCCC(C)CCCC(C)CC(=O)OC[C@H](COP(=O)([O-])OCC[N+](C)(C)C)OC(=O)CC(C)CCCC(C)CCCC(C)CCCC(C)C` (stereo partly drawn) [DPhPC, 1,2-diphytanoyl-sn-glycero-3-phosphocholine], which “toxicity of DPhPC on hNSCs (neural rosette-like structure formation vs no-lipid control)” value [6] is on record?
Its value is “No obvious differences”.

Source: US20230193181A1, “3D Tissue Printing” (Oxford University Innovation Limited, priority 2020, published 2023)
